Test results reported in patent publication US20140248212A1, “NON-IMMUNOGENIC POSITRON EMISSION TOMOGRAPHY REPORTER GENE SYSTEMS” (THE REGENTS OF THE UNIVERSITY OF CALIFORNIA, priority 2011, published 2014).

Legend:
[1] = Biodistribution of PET reporter probes in mice (microPET/CT); assay type: in vivo, C57/BL6 mice
Description: To identify candidate PRPs, eight nucleoside analogs (FIG. 7A) were synthesized that were amenable to ^18F labeling (the first criterion for PRPs). To identify PRP candidates with rapid clearance from normal tissues and low overall background (second criterion for PRGs), biodistribution studies in mice were performed. It was observed that natural (D) nucleosides had higher background than non-natural (L) nucleoside analogs. […] The next step was to identify a human nucleoside kinase that phosphorylates L-[^18F]FMAU and L-[^18F]FEAU, and can be converted into a new PRG that matches four criteria:
Initially, a group of nucleoside analogs amenable to fluorine-18 labeling were identified. These PET tracers, 5 of which were novel, were then screened to determine their biodistribution in C57/BL6 mice (n=3 for each PET tracer) through dynamic microPET scans. […] Rational design is utilized to introduce mutations into human nucleoside kinase thymidine kinase 2 (TK2) to improve the affinity of the kinase for the top candidate probe. The sensitivity and specificity of the novel PET reporter probe/gene pair was then determined in vitro and in vivo using a murine cancer model.
(§1) Animal studies were approved and carried out according to specific guidelines. C57/BL6 mice were injected with the indicated probe and underwent micro-PET/CT analyses at 1- and 3-h post probe injection (Inveon, Siemens Medical Solutions USA Inc.; microCAT; Imtek Inc.). For tumor imaging studies, SCID mice were injected subcutaneously on day −7 in the right and left flanks with 1×10^6 L1210-PRG-expressing cells in 50% v/v phosphate-buffered saline and 50% v/v Matrigel™ (BD Biosciences). For imaging experiments, mice were kept warm and under gas anesthesia (2% v/v isoflurane) and were injected intravenously with 200 μCi of ^18F-labeled probes. A 3-h interval was allowed between probe administration and microPET/CT scanning Static microPET images were acquired for 600 s. Image data were evaluated in three-dimensional histograms and reconstructed with a zoom factor of 2.1 using three-dimensional ordered set expectation maximization (OSEM) with 2 iterations followed by MAP (maximum a posteriori) reconstruction with 18 iterations (beta=0.1). Images were analyzed using OsiriX Imaging Software Version 3.8.

[2] = test system: L1210 tumors expressing TK2-N93D; assay: microPET/CT of SCID mice bearing L1210-PRG tumors (TK2-N93D); assay type: in vivo; details: for in vivo L-18F-FMAU uptake compared with WT TK2-expressing tumors: 3 h post-injection
Source text: To compare TK2, TK2-N93D and HSV1-sr39tk in vivo, PRG-expressing L1210 cells were implanted subcutaneously in SCID mice that were then scanned with L-[^18F]FMAU (FIG. 10A) and [^18F]FHBG (FIG. 10C) on consecutive days. […] Signals obtained with sr39tk were slightly higher than those obtained with the human TK2-N93D PRG (the difference was not statistically significant). […] L-[^18F]FMAU accumulation in TK2-N93D transduced tumors was ˜20 times higher than the accumulation in tumors transduced with the control (eYFP only) vector. While this ratio is higher than the 6.67 ratio reported for WT TK2 as a PRG with D-[^18F]FEAU as the PRP (see, e.g. Ponomarev, V., et al. J Nucl Med 48:819-826, 2007), the HSV1-sr39tk/[^18F]FHBG combination still outperforms the TK2-N93D/L-[^18F]FMAU combination by ˜2-fold. The significance of the 2-fold difference for the sensitivity of the new TK2-N93D PRG can be further investigated in the animal models discussed below (see, e.g. Gerth, M. L., et al. Biochem Biophys Res Commun 354:802-807, 2007; Liu, L., et al. Nucleic Acids Res 37:4472-4481, 2009; Iyidogan, P., et al. Biochemistry 47:4711-4720, 2008; Lutz, S., et al. Chimia (Aarau) 63:737-744 2009).
as §1

accumulation in the liver ([1]; 1-h post injection (data not shown)): accumulates in the liver
accumulation in the liver ([1]; 3-h time point): neither probe showed any accumulation
accumulation in the gallbladder ([1]; 3 h after administration): 1.68±0.46 % injected dose/g
retention in the thoracic cavity ([1]; 3 h after administration): very low retention
signals in the GI tract ([1]; 3 h after administration): only detected in the lower GI tract
overall background (biodistribution) ([1]; candidate 18F nucleoside analog probes in mice, FIG. 7B): lowest overall background
non-specific GI signals ([1]; increasing uptake time from 1 to 3 hours): almost completely eliminated
GI activity compared with 18F-FHBG-injected mice ([1]; mice): significantly less intense
Compound: Cc1cn([C@H]2O[C@@H](CO)[C@H](O)[C@H]2[18F])c(=O)[nH]c1=O [L-^18F-FMAU, 2′-deoxy-2′-^18F-5-methyl-1-β-L-arabinofuranosyluracil]
in vivo L-18F-FMAU uptake compared with WT TK2-expressing tumors [2]: nearly double
in vivo L-18F-FMAU uptake compared with WT TK2-expressing tumors ([2]; listed as 18F-L-FMAU): two-fold increase
in vivo L-18F-FMAU uptake compared with WT TK2-expressing tumors ([2]; listed as L-[^18F]FMAU): improved accumulation
L-[18F]FMAU accumulation relative to tumors transduced with control (eYFP only) vector ([2]; 3 hrs post-injection): ~20 times
